Legend:
[1] = tested on: CCR2 expressing cells (CD11b+Ly6c+Hi) in peripheral blood; assay: In vivo depletion assay, flow cytometry of peripheral blood (Example 201); design: species or system human CCR2 knock-in mice (C57 background); settings: hCCR2 knock-in mice, IV 0.1 mpk compound + 10 mpk anti-cotinine antibody (SEQ ID NO: 13/14), peripheral blood at 48 hr
Procedure, shortened: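 Mice dosed with compound formulated in saline/DMSO/PBS, with anti-cotinine antibody (rabbit variable region, mouse IgG2a Fc) where required, pre-incubated 30 min at room temperature. Terminal peripheral blood RBC-lysed, Fc-blocked, stained for CD45, CD3, CD11b, Ly6C, human CCR2 and 7AAD; percent depletion of CD11b+Ly6c+Hi cells determined by flow cytometry.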

[2] = biological target: human alpha1 nicotinic acetylcholine (nACh) receptor (Homo sapiens, UniProt P02708); assay: Nicotinic acetylcholine receptor antagonism assay, IONFlux automated patch clamp (Example 203); format: cell-based; settings: for IC50: antagonism of ACh-stimulated human alpha1 nAChR current, patch clamp; for Emax at 100 µM: maximum percentage antagonism at maximum concentration tested 100 μM
Procedure, shortened: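 Cells expressing human α1 nAChR were incubated with a compound dose response (top 10 μM or 100 μM), then stimulated with ACh (10 mM), and peak current was read by automated patch clamp. % inhibition was taken against ACh-alone control, corrected for vehicle and run-down, and fit non-linearly for IC50; runs were averaged.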

human alpha1 nicotinic acetylcholine (nACh) receptor, sequence (P02708 21-457): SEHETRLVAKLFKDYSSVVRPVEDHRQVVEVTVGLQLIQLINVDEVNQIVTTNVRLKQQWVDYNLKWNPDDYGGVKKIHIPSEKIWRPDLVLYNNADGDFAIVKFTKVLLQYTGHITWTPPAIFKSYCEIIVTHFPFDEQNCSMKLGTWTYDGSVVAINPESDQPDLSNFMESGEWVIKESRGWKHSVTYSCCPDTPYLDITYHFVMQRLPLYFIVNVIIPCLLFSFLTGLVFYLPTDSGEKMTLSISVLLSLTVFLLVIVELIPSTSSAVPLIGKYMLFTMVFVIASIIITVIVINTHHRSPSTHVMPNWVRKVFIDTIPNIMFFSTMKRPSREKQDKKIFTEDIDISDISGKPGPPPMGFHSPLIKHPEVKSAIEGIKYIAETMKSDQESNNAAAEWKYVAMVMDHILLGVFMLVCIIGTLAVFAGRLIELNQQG
human alpha1 nicotinic acetylcholine (nACh) receptor, sequence (P11230 24-501 partner): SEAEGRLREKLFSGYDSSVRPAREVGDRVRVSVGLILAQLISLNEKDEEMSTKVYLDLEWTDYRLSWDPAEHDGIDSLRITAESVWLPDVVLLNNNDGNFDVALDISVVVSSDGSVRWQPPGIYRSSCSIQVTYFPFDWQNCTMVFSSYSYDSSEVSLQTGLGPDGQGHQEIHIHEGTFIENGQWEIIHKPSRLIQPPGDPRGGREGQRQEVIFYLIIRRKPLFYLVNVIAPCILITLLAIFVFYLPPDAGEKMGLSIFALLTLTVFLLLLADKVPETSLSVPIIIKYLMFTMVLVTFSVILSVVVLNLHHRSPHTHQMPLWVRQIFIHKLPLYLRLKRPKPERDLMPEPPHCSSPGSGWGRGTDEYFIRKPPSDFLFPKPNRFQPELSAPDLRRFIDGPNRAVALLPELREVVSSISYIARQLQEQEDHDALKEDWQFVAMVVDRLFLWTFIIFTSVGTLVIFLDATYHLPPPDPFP
human alpha1 nicotinic acetylcholine (nACh) receptor, sequence (Q07001 22-517 partner): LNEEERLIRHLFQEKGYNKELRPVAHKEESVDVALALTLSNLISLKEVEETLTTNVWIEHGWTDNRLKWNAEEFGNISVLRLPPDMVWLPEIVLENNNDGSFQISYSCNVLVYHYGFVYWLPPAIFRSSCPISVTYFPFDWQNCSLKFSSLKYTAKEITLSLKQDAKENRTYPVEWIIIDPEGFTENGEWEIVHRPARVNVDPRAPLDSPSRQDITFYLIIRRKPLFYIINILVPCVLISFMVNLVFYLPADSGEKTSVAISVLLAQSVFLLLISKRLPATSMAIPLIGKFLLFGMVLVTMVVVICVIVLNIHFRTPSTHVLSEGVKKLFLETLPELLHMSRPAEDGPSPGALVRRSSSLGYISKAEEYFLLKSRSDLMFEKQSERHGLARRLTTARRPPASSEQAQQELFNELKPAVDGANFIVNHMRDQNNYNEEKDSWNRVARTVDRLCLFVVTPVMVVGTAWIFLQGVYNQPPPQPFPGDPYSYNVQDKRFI

Row | SMILES | % Depletion of CCR2 expressing cells [1] [%] | IC50 [2] [µM] | Emax at 11.11 µM ([2]; maximum percentage antagonism at maximum concentration tested 11.11 μM, read-out: Maximum Response) [%] | Emax at 30 µM ([2]; maximum percentage antagonism at maximum concentration tested 30 μM, read-out: Maximum Response) [%] | Emax at 10 µM ([2]; maximum percentage antagonism at maximum concentration tested 10 μM, read-out: Maximum Response) [%] | Emax at 100 µM ([2]; read-out: Maximum Response) [%]
1 | CC(C)N(C)[C@@H]1CC[C@H](N2CC[C@H](Nc3ncnc4ccc(C(F)(F)F)cc34)C2=O)[C@H](NC(=O)[C@H]2CC[C@H](NC(=O)CCOC[C@H]3CC[C@H](COCCNC(=O)[C@H]4CC(=O)N(C)[C@@H]4c4cccnc4)CC3)CC2)C1 [Example 53, (2S,3S)-N-(2-(((1R,4S)-4-((3-(((1R,4R)-4-(((1R,2S,5R)-5-(Isopropyl(methyl)amino)-2-((S)-2-oxo-3-((6-(trifluoromethyl)quinazolin-4-yl)amino)pyrrolidin-1-yl)cyclohexyl)carbamoyl)cyclohexyl)amino)-3-oxopropoxy)methyl)cyclohexyl)methoxy)ethyl)-1-methyl-5-oxo-2-(pyridin-3-yl)pyrrolidine-3-carboxamide] | 68.42 | ≥ 11.1 | 10 | – | – | –
2 | CC(C)N(C)[C@@H]1CC[C@H](N2CC[C@H](Nc3ncnc4ccc(C(F)(F)F)cc34)C2=O)[C@H](NC(=O)[C@H]2CC[C@H](NC(=O)CCCOC[C@H]3CC[C@@H](COCCNC(=O)[C@H]4CC(=O)N(C)[C@@H]4c4cccnc4)CC3)CC2)C1 [Example 57, (2S,3S)-N-(2-(((1S,4R)-4-((4-(((1R,4R)-4-(((1R,2S,5R)-5-(Isopropyl(methyl)amino)-2-((S)-2-oxo-3-((6-(trifluoromethyl)quinazolin-4-yl)amino)pyrrolidin-1-yl)cyclohexyl)carbamoyl)cyclohexyl)amino)-4-oxobutoxy)methyl)cyclohexyl)methoxy)ethyl)-1-methyl-5-oxo-2-(pyridin-3-yl)pyrrolidine-3-carboxamide] | 77 | ≥ 30 | – | 47.6 | – | –
3 | CC(C)N(C)[C@@H]1CC[C@H](N2CC[C@H](Nc3ncnc4ccc(C(F)(F)F)cc34)C2=O)[C@H](NC(=O)[C@H]2CC[C@@H](CC(=O)CCCOC[C@H]3CC[C@H](COCCNC(=O)[C@H]4CC(=O)N(C)[C@@H]4c4cccnc4)CC3)CC2)C1 [Example 60, (2S,3S)-N-(2-(((1R,4S)-4-(((5-((1S,4S)-4-(((1R,2S,5R)-5-(Isopropyl(methyl)amino)-2-((S)-2-oxo-3-((6-(trifluoromethyl)quinazolin-4-yl)amino)pyrrolidin-1-yl)cyclohexyl)carbamoyl)cyclohexyl)-4-oxopentyl)oxy)methyl)cyclohexyl)methoxy)ethyl)-1-methyl-5-oxo-2-(pyridin-3-yl)pyrrolidine-3-carboxamide] | 90 | ≥ 10 | – | – | 18.2 | –
4 | CC(C)N(C)[C@@H]1CC[C@H](N2CC[C@H](Nc3ncnc4ccc(C(F)(F)F)cc34)C2=O)[C@H](NC(=O)CCNC(=O)CCCOC[C@H]2CC[C@@H](COCCNC(=O)[C@H]3CC(=O)N(C)[C@@H]3c3cccnc3)CC2)C1 [Example 62, (2S,3S)-N-(2-(((1S,4R)-4-((4-((3-(((1R,2S,5R)-5-(Isopropyl(methyl)amino)-2-((S)-2-oxo-3-((6-(trifluoromethyl)quinazolin-4-yl)amino)pyrrrolidin-1-yl)cyclohexyl)amino)-3-oxopropyl)amino)-4-oxobutoxy)methyl)cyclohexyl)methoxy)ethyl)-1-methyl-5-oxo-2-(pyridin-3-yl)pyrrolidine-3-carboxamide] | 56 | 29 | – | – | – | 67.9
5 | CC(C)N(C)[C@@H]1CC[C@H](N2CC[C@H](Nc3ncnc4ccc(C(F)(F)F)cc34)C2=O)[C@H](NC(=O)[C@H]2CC[C@@H](NC(=O)CCOCCOCCNC(=O)CNC(=O)[C@H]3CC(=O)N(C)[C@@H]3c3cccnc3)CC2)C1 [Example 63, (2S,3S)-N-(2-((2-(2-(3-(((1S,4s)-4-(((1R,2S,5R)-5-(Isopropyl(methyl)amino)-2-((S)-2-oxo-3-((6-(trifluoromethyl)quinazolin-4-yl)amino)pyrrolidin-1-yl)cyclohexyl)carbamoyl)cyclohexyl)amino)-3-oxopropoxy)ethoxy)ethyl)amino)-2-oxoethyl)-1-methyl-5-oxo-2-(pyridin-3-yl)pyrrolidine-3-carboxamide] | 82 | 38.5 | – | – | – | 76.6
6 | CC(C)N(C)[C@@H]1CC[C@H](N2CC[C@H](Nc3ncnc4ccc(C(F)(F)F)cc34)C2=O)[C@H](NC(=O)CCOCCOCCNC(=O)CCOCCOCCNC(=O)[C@H]2CC(=O)N(C)[C@@H]2c2cccnc2)C1 [Example 76, (2S,3S)-N-(19-(((1R,2S,5R)-5-(Isopropyl(methyl)amino)-2-((S)-2-oxo-3-((6-(trifluoromethyl)quinazolin-4-yl)amino)pyrrolidin-1-yl)cyclohexyl)amino)-9,19-dioxo-3,6,13,16-tetraoxa-10-azanonadecyl)-1-methyl-5-oxo-2-(pyridin-3-yl)pyrrolidine-3-carboxamide] | 65 | 32.4 | – | – | – | 67.7
7 | CC(C)N(C)[C@@H]1CC[C@H](N2CC[C@H](Nc3ncnc4ccc(C(F)(F)F)cc34)C2=O)[C@H](NC(=O)[C@H]2CC[C@@H](NC(=O)COCCNC(=O)COCCNC(=O)[C@H]3CC(=O)N(C)[C@@H]3c3cccnc3)CC2)C1 [Example 99, (2S,3S)-N-(2-(2-((2-(2-(((1S,4s)-4-(((1R,2S,5R)-5-(Isopropyl(methyl)amino)-2-((S)-2-oxo-3-((6-(trifluoromethyl)quinazolin-4-yl)amino)pyrrolidin-1-yl)cyclohexyl)carbamoyl)cyclohexyl)amino)-2-oxoethoxy)ethyl)amino)-2-oxoethoxy)ethyl)-1-methyl-5-oxo-2-(pyridin-3-yl)pyrrolidine-3-carboxamide] | 80 | 33.1 | – | – | – | 71.1
8 | CC(C)N(C)[C@@H]1CC[C@H](N2CC[C@H](Nc3ncnc4ccc(C(F)(F)F)cc34)C2=O)[C@H](NC(=O)CCOCCNC(=O)COCCNC(=O)COCCNC(=O)[C@H]2CC(=O)N(C)[C@@H]2c2cccnc2)C1 [Example 102, (2S,3S)-N-(18-(((1R,2S,5R)-5-(Isopropyl(methyl)amino)-2-((S)-2-oxo-3-((6-(trifluoromethyl)quinazolin-4-yl)amino)pyrrolidin-1-yl)cyclohexyl)amino)-5,11,18-trioxo-3,9,15-trioxa-6,12-diazaoctadecyl)-1-methyl-5-oxo-2-(pyridin-3-yl)pyrrolidine-3-carboxamide] | 91 | 66.1 | – | – | – | 61.3
9 | CC(C)N(C)[C@@H]1CC[C@H](N2CC[C@H](Nc3ncnc4ccc(C(F)(F)F)cc34)C2=O)[C@H](NC(=O)CCOCCNC(=O)CCOCCNC(=O)COCCNC(=O)[C@H]2CC(=O)N(C)[C@@H]2c2cccnc2)C1 [Example 105, (2S,3S)-N-(19-(((1R,2S,5R)-5-(Isopropyl(methyl)amino)-2-((S)-2-oxo-3-((6-(trifluoromethyl)quinazolin-4-yl)amino)pyrrolidin-1-yl)cyclohexyl)amino)-5,12,19-trioxo-3,9,16-trioxa-6,13-diazanonadecyl)-1-methyl-5-oxo-2-(pyridin-3-yl)pyrrolidine-3-carboxamide] | 95 | 38.9 | – | – | – | 75.7

From patent publication US12521393B2, “Cytotoxicity targeting chimeras for CCR2-expressing cells” (GLAXOSMITHKLINE INTELLECTUAL PROPERTY DEVELOPMENT LIMITED, priority 2021, dated 2026)
